In PMC12926040, “ADP-ribose is a competitive inhibitor of methanol dehydrogenases from Bacillus methanolicus” (The Journal of Biological Chemistry, 2025):

Tests used:
BmMDH2 [1] = biological target: T1, BmMDH2 (Bacillus methanolicus, UniProt I3E949); experiment: Effects of NAM, AMP and ADPR (0.3 mM each) on BmMDH2 activity; assay type: biochemical, Bacillus methanolicus MGA3; conditions: 3 mM NAD+, 40 mM ethanol
[2] = system: BmMDH2 free of metal ions; experiment: EDTA treatment of BmMDH2 and recovery of activity with metal ions; assay type: biochemical, Bacillus methanolicus MGA3
Protocol: To further characterize the specific activity of BmMDH2 containing different metal ions, the purified BmMDH2 was treated with EDTA to remove the metal ions it coordinated during expression or purification. The protein was incubated with 10 equivalents of EDTA in glycine-NaOH buffer (100 mM, pH 9.5) on the ice for 1 hour. Subsequently, the EDTA was removed from the protein using the HiTrap desalting column (Cytiva, CAT#17-1408-01). […] The BmMDH2 free of metal ions at 10 μM was incubated in glycine-NaOH buffer (100 mM, pH 9.5) containing 1 mM of various metal ions on ice for 1 h, followed by the analysis of the activity. […] Overall, the above results indicated the optimum metal ion for BmMDH2 activity was Mn^2+, which was also supplied in the rest of the research.
(§1) Fig. S12 The effect of metal ions on the activity of BmMDH2. a, The effect of metal ions on the activity of BmMDH2. The purified BmMDH2 at 10 μM was incubated with 1 mM of various metal ions on ice for 1 h, the enzyme activities were measured using 50 mM propanol as substrate at 37 °C. The activity of BmMDH2 incubated in the absence of metal ion was taken as 100%. Data are means ± SDs of three measurements. b. The recovery activity of metal ions-free BmMDH2 replenished with various metal ions. The metal ions in BmMDH2 were chelated with EDTA. The activity of BmMDH2 with Mn^2+ replenishment was taken as 100%. Data are means ± SDs of three measurements.

BmMDH2 [3] = biological target: T1, BmMDH2; experiment: Effect of metal ions on the activity of purified BmMDH2; assay type: biochemical; conditions: 1 mM metal ion, on ice 1 h; 50 mM propanol, 37 °C
Protocol: As a first step, different metal ions were directly incubated with BmMDH2 to determine their impact on its activity. The purified BmMDH2 was diluted to 10 μM in glycine-NaOH buffer (100 mM, pH 9.5) containing 1 mM of various metal ions. After incubation on ice for 1 h, the enzymatic activities were measured in glycine-NaOH buffer (100 mM, pH 9.5) containing 3 mM NAD^+, 1 μM BmMDH2, 0.1 mM various metal ions and 50 mM propanol at 37 °C.
as §1, with “The” for “Fig. S12 The effect of metal ions on the activity of BmMDH2. a, The effect of metal ions on the activity of BmMDH2. The”

BmMDH2 [4] = biological target: T1, BmMDH2; experiment: BmMDH2 activation by ACT, NADH formation monitored at 340 nm; assay type: biochemical; conditions: final NAD+ raised by 2.9 mM after […]; 42 μM/min before; 50 nM ACT
Protocol: Figure 1 ACT-catalyzed conversion of NAD^+ into a compound that activates BmMDH2.A, effect of ACT concentration on BmMDH2 activation. The formation of NADH was monitored at 340 nm, with 100 nM BmMDH2 in glycine-NaOH buffer (pH 9.5) containing 0 to 125 nM ACT, 3 mM NAD^+, 20 mM ethanol, 5 mM MgCl2 and 0.5 mM MnCl2. Data for the initial 10 min are highlighted in the right panel. Data were from a single experiment. B, effects of the following treatments on BmMDH2 activation: preincubated ACT & NAD^+ (red), preincubated ACT & BmMDH2 (blue), ultrafiltrate of preincubated ACT & NAD^+ (green), and ultrafiltrate of ACT (purple) or NAD^+ (cyan) solutions. Preincubations were performed in glycine-NaOH buffer (pH 9.5) with 5 mM MgCl2 and 0.5 mM MnCl2 at 25 °C for 30 min. Ethanol, BmMDH2, or NAD^+ was subsequently added to achieve final concentrations of 10 nM ACT, 20 mM ethanol, 3 mM NAD^+, and 200 nM BmMDH2. For ultrafiltration, preincubated samples were filtered (10 kDa cutoff, Millipore), and the flowthrough was used for activation assays. Data represent means ± SD (n = 3). C, effect of NAD^+ concentration on BmMDH2 activation. Activity was measured using 100 nM BmMDH2 in glycine-NaOH buffer (pH 9.5) with 50 nM ACT, 0 to 20 mM NAD^+, 5 mM MgCl2, and 0.5 mM MnCl2. Data were from a single experiment. D, time-course of BmMDH2 activation. Reaction were performed in 200 μl glycine-NaOH buffer (100 mM, pH 9.5) with 5 mM MgCl2, 0.5 mM MnCl2, 0.25 mM NAD^+, 0.1 μM BmMDH2, 20 mM ethanol, and 50 nM ACT. Fresh NAD^+ (4 μl, 150 mM) was added twice during the reaction. Data were from a single experiment. E, catalytic rates of BmMDH2 were calculated from the slopes of the data in panel D. Additional replicates of the experiments shown in panels A, C, and D are provided in Fig. S4. […]
The catalytic processes of MDHs were monitored by measuring NADH absorbance at 340 nm using a Tecan SPARK UV-Vis plate reader (Tecan Austria GmbH) at 25 °C. […]

[5] = Hydrolysis of NAD+ in glycine-NaOH buffer pH 9.5 at 25 °C (HPLC); assay type: physicochemical
Protocol: NAD^+ (3 mM) was incubated with (black) or without (blue) 10 nM ACT in glycine-NaOH buffer (pH 9.5, 5 mM MgCl2) at 25 °C for 60 min. Unincubated NAD^+ (red) served as a control. Compounds were identified via LC-MS. […] Data are presented as means ± SDs (n = 3). C, degradation of ACT-treated NAD^+ in glycine-NaOH buffer (pH 9.5) at 25 °C. ACT was removed by ultrafiltration before analysis. D, ADPR content in NAD^+ from different suppliers. […] E, schematic of the reactions during ACT incubation with NAD^+.
Fig. S5 The hydrolysis rate of NAD^+ at 25 °C. NAD^+ was dissolved in glycine-NaOH buffer (pH 9.5, 100 mM) at a concentration of 3 mM and incubated at 25 °C. Samples were withdrawn at various time intervals and analyzed by HPLC. The residual NAD^+ was quantified according to the standard curves of NAD^+.

[6] = system: NC(=O)c1ccc[n+]([C@@H]2O[C@H](COP(=O)(O)OP(=O)(O)OC[C@H]3O[C@@H](n4cnc5c(N)ncnc54)[C@H](O)[C@@H]3O)[C@@H](O)[C@H]2O)c1; experiment: purified protein, by the assay type; conditions: other: in the presence of 10 nM ACT, 40 mM ethanol, pH 8.0, 25.0 °C
[7] = biological target: NAD-dependent methanol dehydrogenase 2 from Bacillus methanolicus MGA3 (BmMDH2) (Bacillus methanolicus MGA3); experiment: crystal structure; BmMDH2 apo (2.8 Å), with ADPR (2.6 Å) and with NAD+ (2.6 Å); sitting-drop vapor diffusion at 18 °C, 30 mg/ml protein, Bis-Tris propane pH 6.0-7.0, PEG 3350
[8] = biological target: activator protein ACT from Bacillus methanolicus MGA3 (Nudix hydrolase, ADPRase) (Bacillus methanolicus MGA3) (UniProt Q8KP10); experiment: crystal structure; apo-ACT in two conformations of loop 132-146 (2.0 and 2.4 Å); 90 mg/ml protein in 20 mM Tris-HCl pH 7.5, 150 mM NaCl; reservoir MES pH 5.2 with PEG 400, or MMT pH 5.0 with PEG 1500

T1 sequence (I3E949 entry or part of it): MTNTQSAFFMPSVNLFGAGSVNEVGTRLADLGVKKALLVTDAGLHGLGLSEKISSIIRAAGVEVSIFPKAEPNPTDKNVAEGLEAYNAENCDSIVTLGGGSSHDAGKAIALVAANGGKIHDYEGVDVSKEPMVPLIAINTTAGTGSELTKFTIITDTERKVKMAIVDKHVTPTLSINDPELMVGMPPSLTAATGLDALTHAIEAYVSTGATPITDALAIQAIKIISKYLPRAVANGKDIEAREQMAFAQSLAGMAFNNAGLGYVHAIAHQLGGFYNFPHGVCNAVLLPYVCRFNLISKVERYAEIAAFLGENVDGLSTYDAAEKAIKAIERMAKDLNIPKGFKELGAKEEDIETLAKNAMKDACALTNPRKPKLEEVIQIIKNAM

Nc1ncnc2c1ncn2[C@@H]1O[C@H](COP(=O)(O)O)[C@@H](O)[C@H]1O [AMP]
effect on BmMDH2 activity (in words) (BmMDH2 [1]): Neither AMP nor NAM significantly influenced activation

[Ca+2] [Ca^2+]
recovery of activity of metal-free BmMDH2 ([2]; 1 mM metal ion, on ice 1 h): didn’t restore the activity | effect of metal ion on BmMDH2 activity (BmMDH2 [3]): slightly decreased

[Co+2] [Co^2+]
effect of metal ion on BmMDH2 activity (BmMDH2 [3]): significantly enhanced

[Cu+2] [Cu^2+]
recovery of activity of metal-free BmMDH2 ([2]; 1 mM metal ion, on ice 1 h): didn’t restore the activity | effect of metal ion on BmMDH2 activity (BmMDH2 [3]): significantly inhibited

O=C(O)CN(CCN(CC(=O)O)CC(=O)O)CC(=O)O [EDTA, reference compound]
BmMDH2 activity after EDTA treatment ([2]; 10 equivalents of EDTA, pH 9.5, on ice 1 hour): completely lost

[Fe+2] [Fe^2+]
effect of metal ion on BmMDH2 activity (BmMDH2 [3]): negligible effect

[Mg+2] [Mg^2+]
recovery of activity of metal-free BmMDH2 ([2]; 1 mM metal ion, on ice 1 h): didn’t restore the activity | effect of metal ion on BmMDH2 activity (BmMDH2 [3]): slightly decreased

[Mn+2] [Mn^2+]
activity of metal-free BmMDH2 replenished with metal ion ([2]; 1 mM metal ion, on ice 1 h): 1.04 ± 0.02 U/mg | effect of metal ion on BmMDH2 activity (BmMDH2 [3]): significantly enhanced

NC(=O)c1ccc[n+]([C@@H]2O[C@H](COP(=O)(O)OP(=O)(O)OC[C@H]3O[C@@H](n4cnc5c(N)ncnc54)[C@H](O)[C@@H]3O)[C@@H](O)[C@H]2O)c1 [NAD^+]
catalytic rate of activated BmMDH2 after additional NAD+ dose (BmMDH2 [4]): 4.8 µM/min | half-life at 3 mM ([5]; glycine-NaOH buffer, glycine-NaOH pH 9.5, 25 °C, read-out: t1/2 of NAD+ hydrolysis (converted)): 64 h | rate constant for NAD+ hydrolysis ([5]; glycine-NaOH pH 9.5, 25 °C): 0.011 h⁻¹ | increase of ADPR and NAM on incubation of NAD+ ([5]; glycine-NaOH pH 9.5, 60 min): about 40%

NC(=O)c1cccnc1 [NAM, nicotinamide]
effect on BmMDH2 activity (in words) (BmMDH2 [1]): Neither AMP nor NAM significantly influenced activation

[Ni+2] [Ni^2+]
effect of metal ion on BmMDH2 activity (BmMDH2 [3]): slightly decreased

[Zn+2] [Zn^2+]
recovery of activity of metal-free BmMDH2 ([2]; 1 mM metal ion, on ice 1 h): didn’t restore the activity | effect of metal ion on BmMDH2 activity (BmMDH2 [3]): significantly inhibited

BmMDH2S101G (Bacillus methanolicus MGA3; S101G)
Km [6]: 6.2 ± 0.8 mM

NAD-dependent methanol dehydrogenase 2 from Bacillus methanolicus MGA3 (BmMDH2) (enzyme)
stoichiometry N [7]: 10

activator protein ACT from Bacillus methanolicus MGA3 (Nudix hydrolase, ADPRase) (from UniProt Q8KP10 1-183) (enzyme)
stoichiometry N [8]: 2
